Data published in ChEMBL document CHEMBL1255373, “In vitro antibacterial activity of CE-156811, a novel analog derived from hygromycin A” (2008).
Converted amounts (≈) assume the structure as drawn.

How the values were obtained:
Format in all cases: functional
Staphylococcus aureus [1] = assay: Antibacterial activity against methicillin-resistant Staphylococcus aureus clinical isolate by broth microdilution method
Streptococcus pneumoniae [2] = assay: Antibacterial activity against penicillin-susceptible Streptococcus pneumoniae clinical isolate by broth microdilution method
Enterococcus faecium [3] = assay: Antibacterial activity against linezolid-resistant Enterococcus faecium 03B1077 by broth microdilution method
Corynebacterium sp. = assay: Antibacterial activity against Corynebacterium sp. by broth microdilution method
Listeria monocytogenes = assay: Antibacterial activity against Listeria monocytogenes clinical isolate by broth microdilution method
Enterococcus faecium [4] = assay: Antibacterial activity against vancomycin-susceptible Enterococcus faecium clinical isolate by broth microdilution method
Streptococcus pneumoniae [5] = assay: Antibacterial activity against penicillin-nonsusceptible Streptococcus pneumoniae clinical isolate by broth microdilution method
Staphylococcus = assay: Antibacterial activity against coagulase-negative Staphylococcus clinical isolate by broth microdilution method
Staphylococcus aureus [6] = assay: Antibacterial activity against methicillin-susceptible Staphylococcus aureus clinical isolate by broth microdilution method
Enterococcus faecium [7] = assay: Antibacterial activity against linezolid-resistant Enterococcus faecium 03B1074 by broth microdilution method
[8] = test system: Staphylococcus epidermidis; assay: Antibacterial activity against methicillin-susceptible Staphylococcus epidermidis clinical isolate by broth microdilution method
Enterococcus faecalis [9] = assay: Antibacterial activity against linezolid-resistant Enterococcus faecalis 03A1128 by broth microdilution method
Enterococcus faecium [10] = assay: Antibacterial activity against linezolid-resistant Enterococcus faecium 03B1075 by broth microdilution method
Enterococcus faecium [11] = assay: Antibacterial activity against vancomycin-resistant Enterococcus faecium clinical isolate by broth microdilution method
Enterococcus faecium [12] = assay: Antibacterial activity against linezolid-resistant Enterococcus faecium 03B1073 by broth microdilution method
Enterococcus faecium [13] = assay: Antibacterial activity against linezolid-resistant Enterococcus faecium 03B1078 by broth microdilution method
Enterococcus faecalis [14] = assay: Antibacterial activity against vancomycin-susceptible Enterococcus faecalis clinical isolate by broth microdilution method
Enterococcus faecalis [15] = assay: Antibacterial activity against […] Enterococcus faecalis ATCC 29212 by broth microdilution method
Enterococcus faecalis [16] = assay: Antibacterial activity against vancomycin-resistant Enterococcus faecalis clinical isolate by broth microdilution method

Compound CN[C@H](CC(C)C)C(=O)N[C@H]1C(=O)N[C@@H](CC(N)=O)C(=O)N[C@H]2C(=O)N[C@H]3C(=O)N[C@H](C(=O)N[C@H](C(=O)O)c4cc(O)cc(O)c4-c4cc3ccc4O)[C@H](O)c3ccc(c(Cl)c3)Oc3cc2cc(c3O[C@@H]2O[C@H](CO)[C@@H](O)[C@H](O)[C@H]2O[C@H]2C[C@](C)(N)[C@H](O)[C@H](C)O2)Oc2ccc(cc2Cl)[C@H]1O [VANCOMYCIN] has an MIC50 (Staphylococcus aureus [1]) of 1 µg/mL (≈ 0.69 µM), an MIC90 (Staphylococcus aureus [1]) of 2 µg/mL (≈ 1.38 µM) and an MIC (Streptococcus pneumoniae [2]) of 0.25 µg/mL (≈ 0.173 µM). For the same compound, the MIC50 (Streptococcus pneumoniae [2]) was 0.25 µg/mL (≈ 0.173 µM), the MIC90 (Streptococcus pneumoniae [2]) was 0.25 µg/mL (≈ 0.173 µM) and the MIC (Enterococcus faecium [3]) was over 32 µg/mL. The MIC50 (Corynebacterium sp.) was 0.5 µg/mL (≈ 0.345 µM), the MIC90 (Corynebacterium sp.) was 1 µg/mL (≈ 0.69 µM) and the MIC (Listeria monocytogenes) was 1 µg/mL (≈ 0.69 µM). The MIC50 (Listeria monocytogenes) was 1 µg/mL (≈ 0.69 µM), the MIC90 (Listeria monocytogenes) was 1 µg/mL (≈ 0.69 µM) and the MIC50 (Enterococcus faecium [4]) was 1 µg/mL (≈ 0.69 µM). The MIC90 (Enterococcus faecium [4]) was 1 µg/mL (≈ 0.69 µM), the MIC50 (Streptococcus pneumoniae [5]) was 0.25 µg/mL (≈ 0.173 µM) and the MIC90 (Streptococcus pneumoniae [5]) was 0.25 µg/mL (≈ 0.173 µM). The MIC50 (Staphylococcus) was 2 µg/mL (≈ 1.38 µM), the MIC90 (Staphylococcus) was 2 µg/mL (≈ 1.38 µM) and the MIC50 (Staphylococcus aureus [6]) was 0.5 µg/mL (≈ 0.345 µM). For the same compound, the MIC90 (Staphylococcus aureus [6]) was 1 µg/mL (≈ 0.69 µM), the MIC (Enterococcus faecium [7]) was over 32 µg/mL and the MIC50 [8] was 1 µg/mL (≈ 0.69 µM). The MIC90 [8] was 2 µg/mL (≈ 1.38 µM), the MIC (Enterococcus faecalis [9]) was 1 µg/mL (≈ 0.69 µM) and the MIC (Enterococcus faecium [10]) was over 32 µg/mL. For the same compound, the MIC50 (Enterococcus faecium [11]) was over 32 µg/mL, the MIC90 (Enterococcus faecium [11]) was over 32 µg/mL and the MIC (Enterococcus faecium [12]) was over 32 µg/mL. It also gave an MIC (Enterococcus faecium [13]) of over 32 µg/mL, an MIC50 (Enterococcus faecalis [14]) of 2 µg/mL (≈ 1.38 µM) and an MIC90 (Enterococcus faecalis [14]) of 4 µg/mL (≈ 2.76 µM). It also gave an MIC (Enterococcus faecalis [15]) of 2 µg/mL (≈ 1.38 µM), an MIC50 (Enterococcus faecalis [16]) of over 32 µg/mL and an MIC90 (Enterococcus faecalis [16]) of over 32 µg/mL.
For CC1(C)S[C@@H]2[C@H](NC(=O)Cc3ccccc3)C(=O)N2[C@H]1C(=O)O [PENICILLIN G], the MIC (Streptococcus pneumoniae [2]) was 0.015 µg/mL (≈ 0.0449 µM), the MIC50 (Streptococcus pneumoniae [2]) was 0.015 µg/mL (≈ 0.0449 µM) and the MIC90 (Streptococcus pneumoniae [2]) was 0.015 µg/mL (≈ 0.0449 µM). It also gave an MIC50 (Streptococcus pneumoniae [5]) of 2 µg/mL (≈ 5.98 µM) and an MIC90 (Streptococcus pneumoniae [5]) of 4 µg/mL (≈ 12 µM).
